Where “and” joins values, the source holds several entries; their conditions need not be identical. Identical values can stand only once. Entries after “also recorded” stand apart in the source; their conditions may differ.
Key:
[1] = pharmacokinetics, intratumoral concentration after intravenous injection; type: in vivo; details: mice with MDA-MB-435 xenograft tumors
Method: Compound J was injected intravenously into mice containing xenograft tumors grown from MDA-MB-435 breast cancer cells. The intratumoral concentration of Compound J was measured as a function of time.

[2] = system: MDA-MB-435 (breast) xenografts; experiment: growth inhibition of MDA-MB-435 xenografts; type: in vivo, mice; details: 20 mg/kg, IP
[3] = system: PTX10 ovarian tumor cell line; experiment: survival of PTX10 ovarian tumor cell line; type: cell-based; details: PTX10, FIG. 2
Excerpt: Additional experiments testing the effect of Compound J and paclitaxel on the survival of PTX10ovarian tumor cell line are shown in FIG. 2. […] In FIG. 2, the circles represent Compound J and the diamonds represent paclitaxel.

[4] = system: melanoma tumor cell lines; experiment: growth inhibition (GI50) of tumor cell lines; type: cell-based; details: FIG. 1
Method: (§1) A number of tumor cell lines representing breast, lung, colon, ovarian and prostate cancer as well as melanoma were assayed under standard growth conditions in presence of varying amounts of diazonamide A, a hydroxylated form of Compound J, Compound J, paclitaxel and vinblastine. The results are graphed as the concentration that diminishes growth by a factor of two (GI50) in FIG. 1.

MDA-MB-231 = experiment: growth inhibition (GI50) of tumor cell lines; type: cell-based; details: MDA-MB-231, FIG. 1
Method: as §1

PC-3 xenografts = experiment: growth inhibition of PC-3 xenografts; type: in vivo, mice; details: 20 mg/kg; for inhibition of growth of PC-3 xenografts: FIG. 4B; for % Max T/C / Log10 Tumor Cell Kill: PC3 (prostate), IV
Method: In FIG. 4B, the squares are the control, the dark circles are the data-points for Compound J and the light diamonds are data-points for paclitaxel.
The details of the protocol for Examples 19 and 20 are as follows:
• PC3 prostrate tumor cells and HCT116 colon tumor cells (acquired from the tumor repository Division of Cancer Treatment and Diagnosis (DCTD) of the NCI • Complete RPMI Media • RPMI (Cat# 11875-085, Invitrogen) • 10% Heat-inactivated (30′ 56° C.) Fetal Bovine Serum (Cat# 100-106, Gemini Bio-Products • 2 mM L-glutamine (Cat# 25030-081, Invitrogen) • 0.1 mM MEM Non-Essential Amino Acids Solution (Cat#11140-050, Invitrogen) • 10 U/ml Penicillin/10 μg/ml Streptomycin (Cat#15140-122, Invitrogen) • 1 mM Sodium Pyruvate (Cat#l 1360-070) • Trypsin-EDTA (Cat#25300-054, Invitrogen) • Ca^2+/Mg^2+-free Phosphate Buffered Saline, 5% dextrose in water • Cell Culture Dish 150 mm×25 mm (Cat# 430599, Coming, Inc.) • 10 and 25 ml pipets, standard pipet-aid, p200 and p1000 pipette tips and standard pipetmen • Athymic NCr-nu/nu nude mice at 6-12 weeks of age, either sex (Strain code: 01B74, NCI Frederick Animal Production Program—suppliers include Charles River Labs and Taconic Farms). Female mice of approximately 7 weeks of age were utilized for existing experiments. • Standard 1 cc tuberculin syringe, 30G½ and 25G⅝ needles (Becton Dickinson) • Falcon 5 ml tubes (Cat#352054) • 50 and 15 ml disposable plastic conical tubes (Falcon or similar vendor) • Trypan Blue Solution (0.4%) (Cat#T8154, Sigma) • Hausser phase contrast hemacytometer (Cat# 02-671-54, Fisher) • Ice bucket • Balance for weighing mice (accurate to 0.2 g) • Vernier calipers • Vivarium facility free from known pathogens (nude mice should be housed in isolation from conventional mice if possible—separate rooms or micro-isolator cages equipped with individual air flow; all animal housing, bedding, water should be autoclaved prior to use; standard irradiated mouse chow should be used; animals should be changed out of cages within laminar flow hood; investigators handling mice should be suitably garbed—disposable gown, bonnet, booties, gloves, mask) • AB-5 (Compound J) compound • Ethyl alcohol, 200 proof (Aaper, MFD 041205) • Cremaphor (Cat# C5135, Sigma) • Paclitaxel (Cat#ANP0010, Polymed Therapeutics) Procedure: • 1) Rapidly thaw PC3 or HCT116 cells (if necessary) in 37° C. water bath. Transfer contents to 9ml complete RPMI media. Spin 5′ at 1200 rpm (240 Xg). Discard media and resuspend pellet in 8 ml complete RPMI media. Plate in 100 mm×25 mm cell culture dish in 5% CO2, 37° C. humidified incubator. • 2) Allow to grow for 5-10 days, splitting (aspirate media, wash with 3-5 ml PBS, add 1 ml trypsin-EDTA, incubate 3-5′ at 37° C., add media to desired volume and transfer to multiple plates) 1:8 to 1:10 every 3-4 days as necessary to allow cells to enter phase of logarithmic growth. • 3) When cells are growing well, begin to expand to 150 mm×25 mm dishes. We use 20 ml of media in a 150 mm dish and use 2 ml of trypsin for splitting. When nearly confluent, there should be 2×10^7 cells/150 mm dish. • 4) Plan ahead to time arrival of nu/nu mice such that they can acclimate to animal facility for 1 week prior to injection of tumor cells. […] Plan to inject 10 million cells/mouse and allow for loss of cells/volume during injection process. That is, if 30 mice are to be injected, plan to harvest cells sufficient for at least 35 injections—35×10 million cells=3.5×10^8 cells. In the existing HCT116 experiment, 7.5×10^6 cells were injected per mouse. Five mice per group were utilized for AB-5 treatment and four mice per group were utilized for the control and paclitaxel treatments. In the existing PC3 experiment, 10^7 cells were injected. Six mice per group were utilized for the control treatment and five mice per group were utilized for the AB-5 and paclitaxel treatments. […]

[5] = system: ovarian cell line IGR-OV1; experiment: growth inhibition (GI50) of tumor cell lines; type: cell-based; details: IGR-OV1, FIG. 1
Method: as §1

SKMEL-2 = experiment: growth inhibition (GI50) of tumor cell lines; type: cell-based; details: SKMEL-2, FIG. 1
Method: as §1

SMILES | area under the curve [1] [ng·min/mL] | half-life ([1]; mouse, tumor, read-out: terminal half-life) [min] | Vd ([1]; mouse, tumor, read-out: volume of distribution) [L/kg] | #Tumor Free (day) [2] | % Max T/C [2] | percentage of cells surviving (survival fraction against concentration) [3] | GI50 (concentration that diminishes growth by a factor of two) [4] | GI50 (concentration that diminishes growth by a factor of two) (MDA-MB-231) | inhibition of growth of PC-3 xenografts (PC-3 xenografts) | % Max T/C (PC-3 xenografts) [%] | Log10 Tumor Cell Kill (PC-3 xenografts) | GI50 (concentration that diminishes growth by a factor of two) [5] | GI50 (concentration that diminishes growth by a factor of two) (SKMEL-2)
CC(C)[C@H](O)C(=O)N[C@H]1Cc2ccc3c(c2)[C@]24C5=C(N=C(O5)[C@H](C(C)C)NC1=O)c1ncc(o1)-c1c[nH]c5cccc(c15)-c1cccc2c1NC4O3 (stereo in doubt) [Compound J] | 3010224 | 298 | 2.9 | 0/6 | 6.8% and 3.1% | more effective than paclitaxel | less effective than the remaining drugs | more effective than the remaining drugs | comparable to paclitaxel; also recorded: significantly inhibited tumor growth | 0.3 | 3.4 |  | 
CC(=O)O[C@H]1C(=O)[C@@]2(C)[C@H]([C@H](OC(=O)c3ccccc3)[C@]3(O)C[C@H](OC(=O)[C@H](O)[C@@H](NC(=O)c4ccccc4)c4ccccc4)C(C)=C1C3(C)C)[C@]1(OC(C)=O)CO[C@@H]1C[C@@H]2O [paclitaxel, reference compound] |  |  |  |  |  |  |  |  | significantly inhibited tumor growth | 0 | 3.4 | significantly less effective than the remaining four drugs | significantly less effective than the remaining four drugs
